In ChEMBL document CHEMBL1133808, “The discovery of sulfonylated dipeptides as potent VLA-4 antagonists” (Bioorg Med Chem Lett, 2001) one finds IC50 and clearance data, which are given here for 40 compounds.

The target of data set [1] is Integrin alpha-4/beta-1 (Homo sapiens, UniProt P05556+P13612). Briefly: Antagonistic activity against VLA-4 integrin of human jurkat cells using [125I]VCAM-Ig as radioligand. Type of data set: functional, cell-based.
Data set [2] concerns the target T1, Integrin alpha-4/beta-7 (Homo sapiens, UniProt P13612+P26010).
T1 sequence (P13612 whole entry): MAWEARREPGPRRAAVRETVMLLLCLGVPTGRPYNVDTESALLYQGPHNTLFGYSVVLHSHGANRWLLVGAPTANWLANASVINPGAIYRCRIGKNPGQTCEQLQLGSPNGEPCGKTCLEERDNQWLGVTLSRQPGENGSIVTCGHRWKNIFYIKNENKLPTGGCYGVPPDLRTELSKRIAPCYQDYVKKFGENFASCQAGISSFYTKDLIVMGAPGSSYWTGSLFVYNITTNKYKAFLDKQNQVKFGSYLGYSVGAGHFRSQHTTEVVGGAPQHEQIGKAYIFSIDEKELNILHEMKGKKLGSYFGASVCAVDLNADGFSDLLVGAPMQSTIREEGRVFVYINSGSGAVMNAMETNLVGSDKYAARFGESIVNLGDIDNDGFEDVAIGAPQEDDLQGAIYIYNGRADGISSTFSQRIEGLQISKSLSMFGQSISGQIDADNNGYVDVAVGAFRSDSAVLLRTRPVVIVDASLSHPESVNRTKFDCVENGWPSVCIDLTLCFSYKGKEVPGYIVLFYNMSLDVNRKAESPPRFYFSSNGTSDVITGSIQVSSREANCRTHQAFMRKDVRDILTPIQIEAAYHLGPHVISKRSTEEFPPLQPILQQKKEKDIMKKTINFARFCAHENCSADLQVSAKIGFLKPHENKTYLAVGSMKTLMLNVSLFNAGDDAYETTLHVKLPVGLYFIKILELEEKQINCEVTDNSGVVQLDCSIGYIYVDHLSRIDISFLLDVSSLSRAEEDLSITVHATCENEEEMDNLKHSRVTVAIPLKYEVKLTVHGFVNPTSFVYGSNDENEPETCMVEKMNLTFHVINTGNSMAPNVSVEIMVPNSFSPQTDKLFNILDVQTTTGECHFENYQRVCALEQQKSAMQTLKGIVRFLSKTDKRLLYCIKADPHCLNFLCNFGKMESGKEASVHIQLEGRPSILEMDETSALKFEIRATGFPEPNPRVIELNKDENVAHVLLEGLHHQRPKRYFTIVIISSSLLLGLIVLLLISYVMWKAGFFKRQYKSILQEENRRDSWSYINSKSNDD
T1 sequence (P26010 whole entry): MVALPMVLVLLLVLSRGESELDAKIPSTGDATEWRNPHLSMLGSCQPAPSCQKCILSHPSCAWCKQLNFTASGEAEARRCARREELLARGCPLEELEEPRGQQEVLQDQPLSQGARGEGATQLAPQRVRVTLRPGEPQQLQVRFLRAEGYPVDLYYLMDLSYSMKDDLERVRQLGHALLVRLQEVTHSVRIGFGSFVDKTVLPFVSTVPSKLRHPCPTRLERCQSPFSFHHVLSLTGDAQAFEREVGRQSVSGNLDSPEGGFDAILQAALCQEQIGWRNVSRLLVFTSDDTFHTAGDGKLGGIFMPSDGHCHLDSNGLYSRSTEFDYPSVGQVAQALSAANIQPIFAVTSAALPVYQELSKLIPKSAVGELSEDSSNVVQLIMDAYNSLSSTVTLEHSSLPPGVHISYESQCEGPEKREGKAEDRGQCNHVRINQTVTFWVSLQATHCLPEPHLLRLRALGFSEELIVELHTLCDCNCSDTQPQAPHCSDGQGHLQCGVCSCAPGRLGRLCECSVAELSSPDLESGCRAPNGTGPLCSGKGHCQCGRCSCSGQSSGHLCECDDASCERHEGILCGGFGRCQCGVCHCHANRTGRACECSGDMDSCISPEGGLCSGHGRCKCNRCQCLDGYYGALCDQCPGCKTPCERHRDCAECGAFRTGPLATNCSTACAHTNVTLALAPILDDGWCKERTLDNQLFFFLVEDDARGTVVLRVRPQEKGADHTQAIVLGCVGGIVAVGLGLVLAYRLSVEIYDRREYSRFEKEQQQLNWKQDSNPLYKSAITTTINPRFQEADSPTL
The data set can be described thus: Inhibition of [125I]VCAM-Ig binding to alpha4-beta7 integrin of human RPMI-8866 cells. In kind it is cell-based.

Data set [3] concerns the target T1, Integrin alpha-4/beta-7. Briefly: Inhibition of [125I]MAdCAM-Ig binding to alpha4-beta7 integrin of human RPMI-8866 cells. Type of data set: cell-based.
The nature of data set [4]: Plasma clearance in Sprague-Dawley rats. In kind it is ADME, organism-based. The following applies: rat, read-out: Clp.

Molecules are shown by their SMILES. Starred links: 1 amine or outer side, 2 acyl side, 3 side chain; linkers in the order of their positions; H or OH if unused. Non-standard residues stand in square brackets, D forms with d. Residues, ends and D or L forms follow the SMILES beside them. *: point of attachment. X1 = O=C(Cc1ccc(N[*:1])cc1)[*:2]; NH(2-Me-phenyl) = Cc1ccccc1N*; CO = O=C([*:1])[*:2]

Sequence of Integrin alpha-4/beta-1 (P05556 whole entry, one chain of several): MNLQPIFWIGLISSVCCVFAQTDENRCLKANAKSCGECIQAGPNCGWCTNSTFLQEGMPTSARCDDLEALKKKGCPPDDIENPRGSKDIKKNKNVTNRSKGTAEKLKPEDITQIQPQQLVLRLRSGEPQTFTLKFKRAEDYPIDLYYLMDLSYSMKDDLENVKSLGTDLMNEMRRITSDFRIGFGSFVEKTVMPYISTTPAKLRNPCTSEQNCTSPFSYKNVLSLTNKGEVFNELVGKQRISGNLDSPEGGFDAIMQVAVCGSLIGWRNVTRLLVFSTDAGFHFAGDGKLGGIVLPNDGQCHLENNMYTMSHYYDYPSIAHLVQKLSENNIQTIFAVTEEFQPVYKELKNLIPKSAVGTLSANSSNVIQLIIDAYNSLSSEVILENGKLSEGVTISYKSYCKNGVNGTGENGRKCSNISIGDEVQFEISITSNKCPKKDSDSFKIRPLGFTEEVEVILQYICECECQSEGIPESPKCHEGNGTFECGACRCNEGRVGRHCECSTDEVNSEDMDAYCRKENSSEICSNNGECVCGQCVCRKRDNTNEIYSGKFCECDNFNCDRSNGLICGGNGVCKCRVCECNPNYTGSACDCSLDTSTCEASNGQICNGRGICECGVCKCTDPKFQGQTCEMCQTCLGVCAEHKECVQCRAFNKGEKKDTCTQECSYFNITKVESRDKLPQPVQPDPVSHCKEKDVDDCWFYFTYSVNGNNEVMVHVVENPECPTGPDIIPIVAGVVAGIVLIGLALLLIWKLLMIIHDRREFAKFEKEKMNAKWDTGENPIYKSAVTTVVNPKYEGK

In the case of `COC(=O)c1ccccc1-c1ccc(C[C@H](NC(=O)[C@@H]2CCCN2S(=O)(=O)c2cc(Cl)cc(Cl)c2)C(=O)O)cc1`, the IC50 (as a rule, the concentration that gives 50% inhibition) in data set [1] is 0.15 nM.
Still for that read-out and setting: next, `NC(=O)c1ccccc1-c1ccc(C[C@H](NC(=O)[C@@H]2CCCN2S(=O)(=O)c2cc(Cl)cc(Cl)c2)C(=O)O)cc1`: 0.09 nM.
Consider `C[C@@]1(C(=O)N[C@@H](Cc2ccc(-c3cccc4cc[nH]c34)cc2)C(=O)O)CCCN1S(=O)(=O)c1cc(Cl)cc(Cl)c1`, for which the results for the IC50 in data set [2] and in data set [1] were 5720 nM and 1.33 nM, respectively.
As for `CCCC[C@H](NC(=O)[C@@H]1Cc2ccccc2CN1S(=O)(=O)c1cc(Cl)cc(Cl)c1)C(=O)O`, the IC50 in data set [1] is 10 nM.
Take `COc1cccc(C#N)c1-c1ccc(C[C@H](NC(=O)[C@]2(C)CCCN2S(=O)(=O)c2cc(Cl)cc(Cl)c2)C(=O)O)cc1`: the figures for the 50% inhibitory concentration (IC50) in data set [3] and in data set [1] were 77 nM and 0.28 nM, respectively.
With `COC(=O)c1cccc(-c2ccc(C[C@H](NC(=O)[C@@H]3CCCN3S(=O)(=O)c3cc(Cl)cc(Cl)c3)C(=O)O)cc2)c1`, the IC50 in data set [1] amounted to 0.4 nM.
The same measure, in the same setting: next, `CN(C)C(=O)c1ccccc1-c1ccc(C[C@H](NC(=O)[C@@H]2CCCN2S(=O)(=O)c2cc(Cl)cc(Cl)c2)C(=O)O)cc1`: 0.13 nM; `COc1ccc(S(=O)(=O)N2Cc3ccccc3C[C@H]2C(=O)N[C@@H](Cc2ccc3ccccc3c2)C(=O)O)cc1OC`: 7 nM.
As for `COc1ccccc1-c1ccc(C[C@H](NC(=O)[C@]2(C)CCCN2S(=O)(=O)c2cc(Cl)cc(Cl)c2)C(=O)O)cc1`, the IC50 in data set [2] turned out to be 242 nM; in data set [1], 0.52 nM. For the same compound, the clearance in data set [4] was 20 mL/min/kg.
As to `CC(C)C(=O)Oc1cccc(OC(=O)C(C)C)c1-c1ccc(C[C@H](NC(=O)[C@]2(C)CCCN2S(=O)(=O)c2cc(Cl)cc(Cl)c2)C(=O)O)cc1`, the results for the half-inhibitory concentration (IC50) in data set [3] and in data set [1] were 3550 nM and 4.5 nM, respectively.
Consider `Cc1ccccc1NC(=O)Nc1ccc(CC(=O)N[C@@H](CC(C)C)C(=O)N[C@@H](CC(=O)O)C(=O)N[C@H](C(=O)N2CCC[C@H]2C(=O)O)C(C)C)cc1` ({NH(2-Me-phenyl)-CO}-[X1]LDVP-OH), for which the figures for the IC50 in data set [2] and in data set [3] were 433 nM and 862 nM, respectively.
`O=C(O)[C@H](Cc1ccc(-c2ccccc2F)cc1)NC(=O)[C@@H]1CCCN1S(=O)(=O)c1cc(Cl)cc(Cl)c1`: in data set [1], the IC50 came out at 1.02 nM.
The same measure, in the same setting: next, `Cc1ccccc1-c1ccc(C[C@H](NC(=O)[C@@H]2CCCN2S(=O)(=O)c2cc(Cl)cc(Cl)c2)C(=O)O)cc1`: 1.43 nM; `N#Cc1cccc(-c2ccc(C[C@H](NC(=O)[C@@H]3CCCN3S(=O)(=O)c3cc(Cl)cc(Cl)c3)C(=O)O)cc2)c1`: 0.39 nM; `O=Cc1ccccc1-c1ccc(C[C@H](NC(=O)[C@@H]2CCCN2S(=O)(=O)c2cc(Cl)cc(Cl)c2)C(=O)O)cc1`: 0.22 nM.
Regarding `C[C@@]1(C(=O)N[C@@H](Cc2ccc(-c3ccccc3F)cc2)C(=O)O)CCCN1S(=O)(=O)c1cc(Cl)cc(Cl)c1`, the IC50 was above 4000 nM in data set [2] and 2.4 nM in data set [1].
In turn, `O=C(O)[C@H](Cc1ccc(-c2ccccc2)cc1)NC(=O)[C@@H]1CCCN1S(=O)(=O)c1cc(Cl)cc(Cl)c1` came in with an IC50 in data set [1] of 0.63 nM.
The same measure, in the same setting: then `O=Cc1ccc(-c2ccc(C[C@H](NC(=O)[C@@H]3CCCN3S(=O)(=O)c3cc(Cl)cc(Cl)c3)C(=O)O)cc2)cc1`, with 0.38 nM.
Take `C[C@@]1(C(=O)N[C@@H](Cc2ccc(-c3nc[nH]n3)cc2)C(=O)O)CCCN1S(=O)(=O)c1cc(Cl)cc(Cl)c1`: the IC50 is 949 nM in data set [3] and 0.52 nM in data set [1].
`O=C(O)c1ccccc1-c1ccc(C[C@H](NC(=O)[C@@H]2CCCN2S(=O)(=O)c2cc(Cl)cc(Cl)c2)C(=O)O)cc1` showed an IC50 in data set [1] of 0.95 nM.
The same measure, in the same setting: then `COc1cccc(OC)c1-c1ccc(C[C@H](NC(=O)[C@@H]2CCCN2S(=O)(=O)c2cc(Cl)cc(Cl)c2)C(=O)O)cc1`, with 0.09 nM; and `CNC(=O)c1ccccc1-c1ccc(C[C@H](NC(=O)[C@@H]2CCCN2S(=O)(=O)c2cc(Cl)cc(Cl)c2)C(=O)O)cc1`, with 0.1 nM.
On the same count and under the same terms, next, `Cc1ccc(-c2ccc(C[C@H](NC(=O)[C@@H]3CCCN3S(=O)(=O)c3cc(Cl)cc(Cl)c3)C(=O)O)cc2)cc1`: 1.53 nM.
As for `C[C@@]1(C(=O)N[C@@H](Cc2ccc(-c3cccnc3)cc2)C(=O)O)CCCN1S(=O)(=O)c1cc(Cl)cc(Cl)c1`, the IC50 was found to be 311 nM in data set [2] and 0.35 nM in data set [1].
In turn, `O=C(O)c1cccc(-c2ccc(C[C@H](NC(=O)[C@@H]3CCCN3S(=O)(=O)c3cc(Cl)cc(Cl)c3)C(=O)O)cc2)c1` returned an IC50 in data set [1] of 0.54 nM.
On the same count and under the same terms, then `C[C@@]1(C(=O)N[C@@H](Cc2ccc(-c3ncccc3C#N)cc2)C(=O)O)CCCN1S(=O)(=O)c1cc(Cl)cc(Cl)c1`, with 0.14 nM.
Same read-out and setting: then `O=Cc1cccc(-c2ccc(C[C@H](NC(=O)[C@@H]3CCCN3S(=O)(=O)c3cc(Cl)cc(Cl)c3)C(=O)O)cc2)c1`, with 0.23 nM; and `CS(=O)(=O)c1ccccc1-c1ccc(C[C@H](NC(=O)[C@@H]2CCCN2S(=O)(=O)c2cc(Cl)cc(Cl)c2)C(=O)O)cc1`, with 0.1 nM.
In turn, `CCCC[C@H](NC(=O)[C@@H]1CCCN1S(=O)(=O)c1ccc(OC)c(OC)c1)C(=O)O` showed an IC50 in data set [1] of 45 nM.
For the compound `C[C@@]1(C(=O)N[C@@H](Cc2ccc(-c3ccccc3Cl)cc2)C(=O)O)CCCN1S(=O)(=O)c1cc(Cl)cc(Cl)c1`, the results for the IC50 in data set [2] and in data set [1] were 2260 nM and 192 nM, respectively.
The matching figures for `CN(C)C(=O)c1ccccc1-c1ccc(C[C@H](NC(=O)[C@]2(C)CCCN2S(=O)(=O)c2cc(Cl)cc(Cl)c2)C(=O)O)cc1`: 82.7 nM and 0.22 nM.
As to `COc1ccc(S(=O)(=O)N2Cc3ccccc3C[C@H]2C(=O)N[C@@H](CCCNC(=N)N)C(=O)O)cc1OC`, the IC50 in data set [1] was determined as 360 nM.
`C[C@@]1(C(=O)N[C@@H](Cc2ccc(-c3cc(C#N)ccc3F)cc2)C(=O)O)CCCN1S(=O)(=O)c1cc(Cl)cc(Cl)c1`: the IC50 in data set [2] came out at 1240 nM; in data set [1], 1.01 nM.
The matching figures for `C[C@@]1(C(=O)N[C@@H](Cc2ccc(-c3nccs3)cc2)C(=O)O)CCCN1S(=O)(=O)c1cc(Cl)cc(Cl)c1`: 413 nM and 0.24 nM.
Consider `O=C(O)[C@H](Cc1ccc(-c2ccc(F)cc2)cc1)NC(=O)[C@@H]1CCCN1S(=O)(=O)c1cc(Cl)cc(Cl)c1`, for which the IC50 in data set [1] came out at 0.9 nM.
In the case of `C[C@@]1(C(=O)N[C@@H](Cc2ccc(-c3ccccc3S(C)(=O)=O)cc2)C(=O)O)CCCN1S(=O)(=O)c1cc(Cl)cc(Cl)c1`, the IC50 in data set [2] is 13.2 nM; in data set [1], 0.16 nM.
Turning to `C[C@@]1(C(=O)N[C@@H](Cc2ccc(-c3cccc(C#N)c3)cc2)C(=O)O)CCCN1S(=O)(=O)c1cc(Cl)cc(Cl)c1`, the half-inhibitory concentration (IC50) in data set [2] is 1140 nM; in data set [1], 1.12 nM.
In the case of `CSc1ccccc1-c1ccc(C[C@H](NC(=O)[C@]2(C)CCCN2S(=O)(=O)c2cc(Cl)cc(Cl)c2)C(=O)O)cc1`, the figures for the IC50 in data set [2] and in data set [1] were 78.2 nM and 0.65 nM, respectively.
In turn, `CSc1ccccc1-c1ccc(C[C@H](NC(=O)[C@@H]2CCCN2S(=O)(=O)c2cc(Cl)cc(Cl)c2)C(=O)O)cc1` yielded an IC50 in data set [1] of 0.36 nM.
Regarding `C[C@@]1(C(=O)N[C@@H](Cc2ccc(-c3c(O)cccc3O)cc2)C(=O)O)CCCN1S(=O)(=O)c1cc(Cl)cc(Cl)c1`, the values for the IC50 in data set [3] and in data set [1] were 670 nM and 0.5 nM, respectively.
